Data reported in patent US20100137305A1, “AMINOPYRIMIDINES USEFUL AS KINASE INHIBITORS” (VERTEX PHARMACEUTICALS INCORPORATED, priority 2008, published 2010).
Like-named read-outs stand apart in the source and are kept apart here.

Assays:
Aurora-2 (Aurora A) = molecular target: T1, Aurora-2 (Aurora A) (Homo sapiens, UniProt O14965); experiment: Aurora-2 (Aurora A) Inhibition Assay, coupled enzyme assay; format: biochemical; details: 400 μM ATP, 30° C.; read-out: Aurora A kinase activity Ki
T1 sequence (O14965 1-403): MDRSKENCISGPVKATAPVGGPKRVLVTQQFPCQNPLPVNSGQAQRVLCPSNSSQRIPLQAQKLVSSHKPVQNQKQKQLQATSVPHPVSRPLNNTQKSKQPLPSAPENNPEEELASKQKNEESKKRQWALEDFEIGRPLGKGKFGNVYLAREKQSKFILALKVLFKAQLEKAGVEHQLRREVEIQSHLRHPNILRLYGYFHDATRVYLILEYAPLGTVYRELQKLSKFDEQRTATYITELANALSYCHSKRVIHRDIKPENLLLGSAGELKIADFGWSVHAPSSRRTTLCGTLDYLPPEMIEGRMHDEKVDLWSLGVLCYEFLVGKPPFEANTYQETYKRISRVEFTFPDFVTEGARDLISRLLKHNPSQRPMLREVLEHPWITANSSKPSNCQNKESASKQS
Procedure: Compounds were screened for their ability to inhibit Aurora-2 using a standard coupled enzyme assay (Fox et al., Protein Sci., (1998) 7, 2249). Assays were carried out in a mixture of 100 mM Hepes (pH7.5), 10 mM MgCl2, 1 mM DTT, 25 mM NaCl, 2.5 mM phosphoenolpyruvate, 300 μM NADH, 30 μg/ml pyruvate kinase and 10 μg/ml lactate dehydrogenase. Final substrate concentrations in the assay were 400 μM ATP (Sigma Chemicals) and 570 μM peptide (Kemptide, American Peptide, Sunnyvale, Calif.). Assays were carried out at 30° C. and in the presence of 40 nM Aurora-2.
An assay stock buffer solution was prepared containing all of the reagents listed above, with the exception of Aurora-2 and the test compound of interest. 55 μl of the stock solution was placed in a 96 well plate followed by addition of 2 μl of DMSO stock containing serial dilutions of the test compound (typically starting from a final concentration of 7.5 μM). The plate was preincubated for 10 minutes at 30° C. and the reaction initiated by addition of 10 μl of Aurora-2. Initial reaction rates were determined with a Molecular Devices SpectraMax Plus plate reader over a 10 minute time course. IC50 and Ki data were calculated from non-linear regression analysis using the Prism software package (GraphPad Prism version 3.0cx for Macintosh, GraphPad Software, San Diego Calif., USA).

Aurora-1 (Aurora B) = Aurora-1 (Aurora B) (Homo sapiens, UniProt Q96GD4); experiment: Aurora-1 (Aurora B) Inhibition Assay (radiometric); format: biochemical; details: 800 μM ATP; read-out: Aurora B kinase activity Ki
Procedure: An assay buffer solution was prepared which consisted of 25 mM HEPES (pH 7.5), 10 mM MgCl2, 0.1% BSA and 10% glycerol. A 22 nM Aurora-B solution, also containing 1.7 mM DTT and 1.5 mM Kemptide (LRRASLG), was prepared in assay buffer. To 22 μL of the Aurora-B solution, in a 96-well plate, was added 2 μl of a compound stock solution in DMSO and the mixture allowed to equilibrate for 10 minutes at 25° C. The enzyme reaction was initiated by the addition of 16 μl stock [γ-^33P]-ATP Pi-ATP solution (˜20 nCi/μL) prepared in assay buffer, to a final assay concentration of 800 μM. The reaction was stopped after 3 hours by the addition of 16 μL 500 mM phosphoric acid and the levels of ^33P incorporation into the peptide substrate were determined by the following method.
A phosphocellulose 96-well plate (Millipore, Cat no. MAPHNOB50) was pre-treated with 100 μL of a 100 mM phosphoric acid prior to the addition of the enzyme reaction mixture (40 μL). The solution was left to soak on to the phosphocellulose membrane for 30 minutes and the plate subsequently washed four times with 200 μL of a 100 mM phosphoric acid. To each well of the dry plate was added 30 μL of Optiphase ‘SuperMix’ liquid scintillation cocktail (Perkin Elmer) prior to scintillation counting (1450 Microbeta Liquid Scintillation Counter, Wallac). Levels of non-enzyme catalyzed background radioactivity were determined by adding 16 μL of the 500 mM phosphoric acid to control wells, containing all assay components (which acts to denature the enzyme), prior to the addition of the [γ-^33P]-ATP solution. Levels of enzyme catalyzed ^33P incorporation were calculated by subtracting mean background counts from those measured at each inhibitor concentration. For each Ki determination 8 data points, typically covering the concentration range 0-10 μM compound, were obtained in duplicate (DMSO stocks were prepared from an initial compound stock of 10 mM with subsequent 1:2.5 serial dilutions). Ki values were calculated from initial rate data by non-linear regression using the Prism software package (Prism 3.0, Graphpad Software, San Diego, Calif.).

Colo205 cells = experiment: Analysis of Cell Proliferation, 3H thymidine incorporation; format: cell-based; details: Homo sapiens
Procedure: Compounds were screened for their ability to inhibit cell proliferation using Colo205 cells obtained from ECACC and using the assay shown below.
Colo205 cells were seeded in 96 well plates and serially diluted compound was added to the wells in duplicate. Control groups included untreated cells, the compound diluent (0.1% DMSO alone) and culture medium without cells. The cells were then incubated for 72 or 96 hrs at 37C in an atmosphere of 5% CO2/95% humidity.
To measure proliferation, 3 h prior to the end of the experiment 0.5 μCi of 3H thymidine was added to each well. Cells were then harvested and the incorporated radioactivity counted on a Wallac microplate beta-counter. Dose response curves were calculated using either Prism 3.0 (GraphPad) or SoftMax Pro 4.3.1 LS (Molecular Devices) software.

[1] = COLO 205, 96 h, 96 hours, read-out: IC50 cell proliferation after 96 hours
[2] = COLO 205, 72 h, 72 hours, read-out: IC50 cell proliferation after 72 hours

Aurora-1 (Aurora B), sequence (Q96GD4 whole entry): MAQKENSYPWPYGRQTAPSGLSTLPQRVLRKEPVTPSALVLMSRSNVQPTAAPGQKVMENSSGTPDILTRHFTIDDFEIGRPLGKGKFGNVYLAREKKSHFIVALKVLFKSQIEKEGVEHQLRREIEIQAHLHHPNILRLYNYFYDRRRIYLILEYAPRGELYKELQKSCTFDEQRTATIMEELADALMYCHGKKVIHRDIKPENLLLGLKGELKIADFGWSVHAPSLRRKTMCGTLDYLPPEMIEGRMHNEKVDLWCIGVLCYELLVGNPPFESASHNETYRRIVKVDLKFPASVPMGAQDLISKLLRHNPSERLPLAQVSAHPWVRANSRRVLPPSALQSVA

SMILES | Ki (Aurora-2 (Aurora A)) | Ki (Aurora-1 (Aurora B)) | IC50 (Colo205 cells; [1]) | IC50 (Colo205 cells; [2])
CCC(=O)Nc1ccc(Sc2nc(Nc3cc(C)n[nH]3)cc(N3CC[C@@H](NC(C)C)C3)n2)cc1 [Compound I-1] | 10 to 50 nM |  |  | 
CCC(=O)Nc1ccc(Sc2nc(Nc3cc(C)n[nH]3)cc(N3CCC(O)(CC(C)(C)C)C3)n2)cc1 (centres unmarked) [Compound I-2] | ≤ 10 nM |  |  | 
CCC(=O)Nc1ccc(Sc2nc(Nc3cc(C)n[nH]3)cc(N3CCC(N4CCCC4(C)C)C3)n2)cc1 (centres unmarked) [Compound I-3] | ≤ 10 nM |  |  | 
Cc1cnc(Nc2cc(N3CC[C@H](OC(C)C)C3)nc(Sc3ccc(NC(=O)C4CC4)cc3)n2)s1 [Compound I-5] | ≤ 10 nM | 10 to 50 nM |  | 
Cc1cnc(Nc2cc(N3CC[C@@H](O)C3)nc(Sc3ccc(NC(=O)C4CC4)cc3)n2)s1 [Compound I-6] | ≤ 10 nM | 10 to 50 nM |  | 
Cc1cnc(Nc2cc(N3CCC[C@H](N(C)C)C3)nc(Sc3ccc(NC(=O)C4CC4)cc3)n2)s1 [Compound I-8] | 10 to 50 nM |  | 50 to 200 nM | 
CCC(=O)Nc1ccc(Sc2nc(Nc3cc(C)n[nH]3)cc(N3CC[C@@H](NC)C3)n2)cc1 [Compound I-9] | ≤ 10 nM | 10 to 50 nM | 50 to 200 nM | 
CCC(=O)Nc1ccc(Sc2nc(Nc3cc(C)n[nH]3)cc(N3CCC(O)(C(C)(C)C)C3)n2)cc1 (centres unmarked) [Compound I-10] | ≤ 10 nM |  | 50 to 200 nM | 
CCC(=O)Nc1ccc(Sc2nc(Nc3cc(C)n[nH]3)cc(N3CCC(C)(O)C3)n2)cc1 (centres unmarked) [Compound I-11] | ≤ 10 nM | 10 to 50 nM | 50 to 200 nM | 
Cc1cnc(Nc2cc(N3CCC[C@@H](N(C)C)C3)nc(Sc3ccc(NC(=O)C4CC4)cc3)n2)s1 [Compound I-13] | 10 to 50 nM |  | 50 to 200 nM | 
CO[C@H]1CCN(c2cc(Nc3ncc(C)s3)nc(Sc3ccc(NC(=O)C4CC4)cc3)n2)C1 [Compound I-14] | ≤ 10 nM | 10 to 50 nM | 50 to 200 nM | 
CCC(=O)Nc1ccc(Sc2nc(Nc3cc(C)[nH]n3)cc(N3CCC4(CC3)OCCO4)n2)cc1 [Compound I-15] | ≤ 10 nM | 10 to 50 nM | 50 to 200 nM | 
CCC(=O)Nc1ccc(Sc2nc(Nc3cc(C)n[nH]3)cc(N3CCC(C#N)CC3)n2)cc1 [Compound I-16] | ≤ 10 nM | 10 to 50 nM | 50 to 200 nM | 
CCC(=O)Nc1ccc(Sc2nc(Nc3cc(C)[nH]n3)cc(N3CCC(=O)CC3)n2)cc1 [Compound I-17] | ≤ 10 nM | 10 to 50 nM | 50 to 200 nM | 
CCC(=O)Nc1ccc(Sc2nc(Nc3cc(C)n[nH]3)cc(N3CC4CCCNC4C3)n2)cc1 (centres unmarked) [Compound I-19] | ≤ 10 nM |  | 50 to 200 nM | 
CCC(=O)Nc1ccc(Sc2nc(Nc3cc(C4CC4)n[nH]3)cc(N3CCC(F)C3)n2)cc1 (centres unmarked) [Compound I-20] | ≤ 10 nM | ≤ 10 nM | 50 to 200 nM | 

SMILES | Ki (Aurora-2 (Aurora A)) | Ki (Aurora-1 (Aurora B)) | IC50 (Colo205 cells; [1]) | IC50 (Colo205 cells; [2])
CCC(=O)Nc1ccc(Sc2nc(Nc3cc(C)n[nH]3)cc(N3CCC(C)(O)CC3)n2)cc1 [Compound I-21] | ≤ 10 nM | 10 to 50 nM | 50 to 200 nM | 
CCC(=O)Nc1ccc(Sc2nc(Nc3cc(C)n[nH]3)cc(N3CC[C@H](NC)C3)n2)cc1 [Compound I-22] | ≤ 10 nM | 10 to 50 nM | 50 to 200 nM | 
CCC(=O)Nc1ccc(Sc2nc(Nc3cc(C)n[nH]3)cc(N3CCC(C(C)(C)C)CC3)n2)cc1 [Compound I-23] | ≤ 10 nM |  | 50 to 200 nM | 
CN[C@H]1CCCN(c2cc(Nc3ncc(C)s3)nc(Sc3ccc(NC(=O)C4CC4)cc3)n2)C1 [Compound I-25] | ≤ 10 nM |  | 50 to 200 nM | 
Cc1cc(Nc2cc(N3CCCC(F)(F)C3)nc(Sc3ccc(NC(=O)CC(F)(F)F)cc3)n2)[nH]n1 [Compound I-26] | ≤ 10 nM | 10 to 50 nM | 50 to 200 nM | 25 to 125 nM
CCC(=O)Nc1ccc(Sc2nc(Nc3cc(C)[nH]n3)cc(N3CC[C@H](NC(C)C)C3)n2)cc1 [Compound I-28] | 10 to 50 nM |  | 50 to 200 nM | 
Cc1cnc(Nc2cc(N3CC[C@H](N(C)C)C3)nc(Sc3ccc(NC(=O)C4CC4)cc3)n2)s1 [Compound I-30] | ≤ 10 nM |  | 50 to 200 nM | 
Cc1cc(Nc2cc(N3CCC4(CC3)CCN(C(C)C)C4)nc(Sc3ccc(NC(=O)C4CC4)cc3)n2)[nH]n1 [Compound I-31] | ≤ 10 nM | 10 to 50 nM | 50 to 200 nM | 
CCC(=O)Nc1ccc(Sc2nc(Nc3cc(C)n[nH]3)cc(N3CCC(C)(N4CCCC4)CC3)n2)cc1 [Compound I-34] | ≤ 10 nM |  | 50 to 200 nM | 
CN[C@@H]1CCN(c2cc(Nc3ncc(C)s3)nc(Sc3ccc(NC(=O)C4CC4)cc3)n2)C1 [Compound I-36] | ≤ 10 nM |  | ≤ 50 nM | 
Cc1cnc(Nc2cc(N3CC[C@@H](N4CCCC4)C3)nc(Sc3ccc(NC(=O)C4CC4)cc3)n2)s1 [Compound I-37] | ≤ 10 nM |  | ≤ 50 nM | 
CCC(=O)Nc1ccc(Sc2nc(Nc3cc(C)n[nH]3)cc(N3CCC(N4CCCC4)C3)n2)cc1 (centres unmarked) [Compound I-48] | ≤ 10 nM |  | ≤ 50 nM | 
CCC(=O)Nc1ccc(Sc2nc(Nc3cc(C)n[nH]3)cc(N3CC[C@H](N(C)CC)C3)n2)cc1 [Compound I-50] | ≤ 10 nM |  | ≤ 50 nM | 
Cc1cc(Nc2cc(N3CCC(N4CCCC4)CC3)nc(Sc3ccc(NC(=O)CC4CC4)cc3)n2)n[nH]1 [Compound I-83] | ≤ 10 nM |  |  | 25 to 125 nM
CCC(=O)Nc1ccc(Sc2nc(Nc3cc(C)n[nH]3)cc(N3CCC(OC(C)(C)C)CC3)n2)cc1 [Compound I-85] | ≤ 10 nM | 10 to 50 nM |  | 
